Earlier results as cited in patent publication US20190320688A1, “COMPOSITIONS FOR PREVENTING AND RELIEVING HANGOVER & LIVER DAMAGE WHICH OCCUR DUE TO ALCOHOL CONSUMPTION” (priority 2018, published 2019).

Conditions: biological activities listed in background table

Methylcurcumin
Activity: L. amazonensis
